Experimental data taken from patent publication US7008531B2, “Treatment of circulating water systems” (Arch Chemicals Inc., priority 2000, dated 2006).

Key:
[1] = Effect of adjuvant on water clarity (simulated swimming pool water, Hach Turbidimeter and visual inspection); format: physicochemical; conditions: for Turbidity / Visual Observations: simulated pool water with PHMB 6-12 ppm, pH 7.2-7.8, circulated 24 hours; for Turbidity: 70±3° F.; for Effect on water clarity: summary of Table 4, simulated pool water with PHMB
Experimental: Six 10 gallon fish aquariums equipped with a heater and a recirculating pump (to simulate a swimming pool environment) were filled with simulated swimming pool water containing polyhexamethylene biguanide (PHMB) comprising:
The pH of the tanks was maintained between 7.2 and 7.8 and the water temperature was maintained at 70±3° F. After the chemical additions the water was circulated for 24 hours. The water in each tank was then visually inspected and tested for turbidity using a Hach Turbidimeter.

[2] = test system: field isolated mustard algae; test: Remedial laboratory study on algae (flask test, optical density after 5 days); format: cell-based; conditions: for Difference in performance between octadecylamine and dimethyloctadecylamine: 2.5 ppm with PHMB 4.0 ppm, summary of Table 2; for Comments (algae control) / Average Optical Density: Table 2, 5 days; for Average Optical Density: initial absorbance 0.10, <0.2 = algistatic or algicidal
Experimental: Remedial efficacy was evaluated in this example using field isolated mustard algae.
Studies were conducted in 125 ml flasks containing 6 mm borosilicate glass beads (50) and Jaworski's medium (50 ml). The flasks were inoculated with pooled cultures of mustard algae to achieve an initial absorbance of 0.10, as measured using a Milton Roy Spec 20 Spectrophotometer. […] The adjuvants identified in Table 2 were added at levels of 1.25 and 2.5 ppm active ingredient. Busan 20/20™ identified in Table 3 was added at levels of 0.625, 1.25, 2.5 and 5.0 ppm. The performance of the adjuvants were compared to the controls with and without PHMB. The flasks were closed using translucent caps, illuminated for 8 hours using a combination of fluorescent grow lamps and standard incandescent lamps each day and incubated at 80° F. for a period of 5 days. Algal growth was measured after 5 days using a Milton Roy Spec 20 spectrophotometer. The higher the optical density the heavier the growth.

[3] = test system: field isolated mustard algae; test: Preventative laboratory study on algae (flask test, visual growth score); format: cell-based; conditions: for Average Visual Score: 10 days, 0-4 scale, any score >1 is a preventative failure
Experimental: In preventative laboratory treatment studies, growth conditions are optimised to support a bloom. An experimental flask is prepared with a medium having optimised growth conditions to support a bloom, the medium in the flask is treated with a prescribed concentration of a test formulation, and then inoculated with a low concentration of a bloom-forming organism. The medium is monitored for a period of time to observe whether the formulation is effective at preventing an algal bloom.
These studies used the most problematic organisms, i.e. field isolated mustard algae.
The Jawaorski's medium was modified by the addition of 4 ppm polyhexamethylene biguanide (PHMB) (ex Avecia Inc.) to inhibit the growth of the bacteria present in the algal isolates. The inocula were harvested by aseptic vacuum filtration and the concentration of algal cell masses were combined (“pooled”) and redispersed in a aseptic medium to provide a concentrated pooled inoculum. The amount of inoculum used was varied to achieve an initial optical density of 0.010 in the test flasks. The optical density was determined using a Milton Roy Spec 20 spectrophotometer.
[…] Each flask was then inoculated with a prescribed amount of the pooled inoculum, so that the liquid in the flask had no visible green cast.

[4] = adjuvant 1.25 ppm + PHMB 4.0 ppm
[5] = adjuvant 2.5 ppm + PHMB 4.0 ppm

SMILES	Turbidity ([1]; adjuvant 5.0 ppm)	Visual Observations ([1]; adjuvant 5.0 ppm)	Turbidity ([1]; adjuvant 10.0 ppm)	Visual Observations ([1]; adjuvant 10.0 ppm)	Effect on water clarity [1]	Difference in performance between octadecylamine and dimethyloctadecylamine [2]	Comments (algae control) [2, 4]	Average Optical Density [2, 4]	Average Optical Density [2, 5]	Average Visual Score [3, 5]	Average Visual Score ([3]; adjuvant 5.0 ppm + PHMB 4.0 ppm)	Average Visual Score ([3]; adjuvant 10.0 ppm + PHMB 4.0 ppm)	Average Visual Score ([3]; adjuvant 15.0 ppm + PHMB 4.0 ppm)	Preventing the field isolated mustard algae outbreak, compared with PHMB alone ([3]; in combination with PHMB, summary of Table 1)	Comments (algae control) [2, 5]	Turbidity ([1]; adjuvant 2.5 ppm)	Visual Observations ([1]; adjuvant 2.5 ppm)
CCCCCCCCCCCCCCN [Tetradecylamine, reference compound]	10.1 NTU	Cloudy	19.0 NTU	Cloudy	resulted in water turbidity												
CCCCCCCCCCCCCCCCCCN [Octadecylamine, octadecylamine]						no significant difference	Control	0.16	0.08								
CCCCCCCCCCCCN [Dodecylamine, dodecylamine]	1.8 NTU	Clear	2.5 NTU	Clear	no effect on water clarity			0.08	0.12	0	0	0	0	effectiveness	Control	2.7 NTU	Clear
CCCCCCCCCCCCCCCCCCN(C)C [Dimethyloctadecylamine, dimethyloctadecylamine]						no significant difference	Control	0.12	0.07								
